Assay: xn = mol fraction of the nth substance listed

Clc1ccccc1 + Cc1ccccc1
Settings | viscosity [mPa·s]
293.15 K, 101 kPa, x1 = 0.0994 | 0.6134
293.15 K, 101 kPa, x1 = 0.2021 | 0.635
293.15 K, 101 kPa, x1 = 0.2979 | 0.6571
293.15 K, 101 kPa, x1 = 0.3973 | 0.6775
293.15 K, 101 kPa, x1 = 0.5013 | 0.7014
293.15 K, 101 kPa, x1 = 0.6023 | 0.7232
293.15 K, 101 kPa, x1 = 0.7024 | 0.7433
293.15 K, 101 kPa, x1 = 0.8007 | 0.7655
293.15 K, 101 kPa, x1 = 0.9047 | 0.786
293.15 K, 101 kPa, x2 = 0.2 | 0.751
293.15 K, 101 kPa, x2 = 0.4 | 0.709
293.15 K, 101 kPa, x2 = 0.6 | 0.667
293.15 K, 101 kPa, x2 = 0.8 | 0.626
294.55 K, 101.33 kPa, x1 = 0.2 | 0.6717
294.55 K, 101.33 kPa, x1 = 0.7 | 0.7968
294.75 K, 101.33 kPa, x1 = 0.3 | 0.6949
294.85 K, 101.33 kPa, x1 = 0.1 | 0.6367
295.05 K, 101.33 kPa, x1 = 0.4 | 0.7214
298.15 K, 101 kPa, x1 = 0.0994 | 0.5773
298.15 K, 101 kPa, x1 = 0.2021 | 0.5971
298.15 K, 101 kPa, x1 = 0.2979 | 0.6179
298.15 K, 101 kPa, x1 = 0.3973 | 0.6368
298.15 K, 101 kPa, x1 = 0.5013 | 0.6596
298.15 K, 101 kPa, x1 = 0.6023 | 0.6799
298.15 K, 101 kPa, x1 = 0.7024 | 0.6984
298.15 K, 101 kPa, x1 = 0.8007 | 0.7195
298.15 K, 101 kPa, x1 = 0.9047 | 0.7386
298.15 K, 101 kPa, x2 = 0.101 | 0.7515
298.15 K, 101 kPa, x2 = 0.2035 | 0.7315
298.15 K, 101 kPa, x2 = 0.243 | 0.687
298.15 K, 101 kPa, x2 = 0.3026 | 0.7086
298.15 K, 101 kPa, x2 = 0.4005 | 0.6929
298.15 K, 101 kPa, x2 = 0.45 | 0.646
298.15 K, 101 kPa, x2 = 0.5004 | 0.6721
298.15 K, 101 kPa, x2 = 0.6014 | 0.6486
298.15 K, 101 kPa, x2 = 0.643 | 0.608
298.15 K, 101 kPa, x2 = 0.7008 | 0.6321
298.15 K, 101 kPa, x2 = 0.803 | 0.577
298.15 K, 101 kPa, x2 = 0.8048 | 0.6088
298.15 K, 101 kPa, x2 = 0.8995 | 0.592
303.15 K, 101 kPa, x1 = 0.0994 | 0.5443
303.15 K, 101 kPa, x1 = 0.2021 | 0.5628
303.15 K, 101 kPa, x1 = 0.2979 | 0.5824
303.15 K, 101 kPa, x1 = 0.3973 | 0.5999
303.15 K, 101 kPa, x1 = 0.5013 | 0.6212
303.15 K, 101 kPa, x1 = 0.6023 | 0.6405
303.15 K, 101 kPa, x1 = 0.7024 | 0.6579
303.15 K, 101 kPa, x1 = 0.8007 | 0.6779
303.15 K, 101 kPa, x1 = 0.9047 | 0.6957
303.15 K, 101 kPa, x2 = 0.0961 | 0.6999
303.15 K, 101 kPa, x2 = 0.101 | 0.7125
303.15 K, 101 kPa, x2 = 0.193 | 0.6791
303.15 K, 101 kPa, x2 = 0.2035 | 0.6925
303.15 K, 101 kPa, x2 = 0.2907 | 0.6641
303.15 K, 101 kPa, x2 = 0.3026 | 0.6713
303.15 K, 101 kPa, x2 = 0.3894 | 0.6454
303.15 K, 101 kPa, x2 = 0.4005 | 0.6547
303.15 K, 101 kPa, x2 = 0.4889 | 0.63
303.15 K, 101 kPa, x2 = 0.5004 | 0.637
303.15 K, 101 kPa, x2 = 0.5893 | 0.6109
303.15 K, 101 kPa, x2 = 0.6014 | 0.6131
303.15 K, 101 kPa, x2 = 0.6906 | 0.5935
303.15 K, 101 kPa, x2 = 0.7008 | 0.5992
303.15 K, 101 kPa, x2 = 0.7928 | 0.5753
303.15 K, 101 kPa, x2 = 0.8048 | 0.577

Reference: the CheMixHub viscosity set
